In article PMC9516332 (Frontiers in Oncology, 2022):
Read-outs that look alike come from different tables or passages of the source.

Tests used:
Assay in all cases: Kinase panel profiling at 1 µmol/L (MSA or IMAP), percentage inhibition
Type in all cases: biochemical
[1] = molecular target: panel of 255 wild-type kinases (Homo sapiens, UniProt P48730); details: read-out: %-inhibition at 1 µmol/L, CK1δ
[2] = molecular target: panel of 255 wild-type kinases (Homo sapiens, UniProt Q9Y6E0); details: read-out: %-inhibition, MST3
[3] = molecular target: panel of 255 wild-type kinases (Homo sapiens, UniProt P78368); details: read-out: %-inhibition at 1 µmol/L, CK1γ2
[4] = molecular target: T1, panel of 255 wild-type kinases (Homo sapiens, UniProt P51817); details: read-out: %-inhibition at 1 µmol/L, PRKX
T1 sequence (P51817 1-358): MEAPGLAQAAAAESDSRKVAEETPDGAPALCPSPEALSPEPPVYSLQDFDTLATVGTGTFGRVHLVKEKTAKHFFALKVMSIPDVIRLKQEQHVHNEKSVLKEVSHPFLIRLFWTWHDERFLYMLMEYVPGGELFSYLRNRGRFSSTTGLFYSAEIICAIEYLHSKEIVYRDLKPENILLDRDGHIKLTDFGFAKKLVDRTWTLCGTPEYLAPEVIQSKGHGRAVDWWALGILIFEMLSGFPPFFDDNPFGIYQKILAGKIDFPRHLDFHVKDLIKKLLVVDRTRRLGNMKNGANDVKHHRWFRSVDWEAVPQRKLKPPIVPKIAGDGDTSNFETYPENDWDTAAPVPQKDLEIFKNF

[5] = molecular target: panel of 255 wild-type kinases (Homo sapiens, UniProt P10721); details: read-out: %-inhibition at 1 µmol/L, KIT
[6] = molecular target: panel of 255 wild-type kinases (Homo sapiens, UniProt Q00534); details: read-out: %-inhibition CDK6/CycD3
[7] = molecular target: panel of 255 wild-type kinases (Homo sapiens, UniProt Q06187); details: read-out: %-inhibition BTK
[8] = molecular target: panel of 255 wild-type kinases (Homo sapiens, UniProt Q8IU85); details: read-out: %-inhibition CaMK1δ
[9] = molecular target: T2, panel of 255 wild-type kinases (Homo sapiens, UniProt P42680); details: read-out: %-inhibition at 1 µmol/L, TEC
T2 sequence (P42680 1-631): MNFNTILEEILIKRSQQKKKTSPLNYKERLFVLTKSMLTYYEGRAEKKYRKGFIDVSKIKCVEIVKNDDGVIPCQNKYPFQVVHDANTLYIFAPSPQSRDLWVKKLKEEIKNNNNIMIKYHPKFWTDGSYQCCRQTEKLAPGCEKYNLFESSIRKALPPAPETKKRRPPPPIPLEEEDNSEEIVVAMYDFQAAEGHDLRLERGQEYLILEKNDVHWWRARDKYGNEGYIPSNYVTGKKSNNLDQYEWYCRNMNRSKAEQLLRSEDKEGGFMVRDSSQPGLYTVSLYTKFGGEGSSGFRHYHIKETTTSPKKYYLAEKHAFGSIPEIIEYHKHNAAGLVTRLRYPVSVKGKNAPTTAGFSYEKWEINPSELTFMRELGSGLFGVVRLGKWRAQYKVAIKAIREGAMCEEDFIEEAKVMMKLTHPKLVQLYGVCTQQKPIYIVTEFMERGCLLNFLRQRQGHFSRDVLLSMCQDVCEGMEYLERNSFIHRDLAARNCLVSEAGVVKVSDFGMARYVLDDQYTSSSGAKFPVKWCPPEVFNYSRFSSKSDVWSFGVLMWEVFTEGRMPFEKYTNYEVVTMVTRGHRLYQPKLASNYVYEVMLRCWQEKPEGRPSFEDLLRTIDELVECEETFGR

[10] = molecular target: T3, panel of 255 wild-type kinases (Homo sapiens, UniProt P41743); details: read-out: %-inhibition at 1 µmol/L, PKCι
T3 sequence (P41743 1-596): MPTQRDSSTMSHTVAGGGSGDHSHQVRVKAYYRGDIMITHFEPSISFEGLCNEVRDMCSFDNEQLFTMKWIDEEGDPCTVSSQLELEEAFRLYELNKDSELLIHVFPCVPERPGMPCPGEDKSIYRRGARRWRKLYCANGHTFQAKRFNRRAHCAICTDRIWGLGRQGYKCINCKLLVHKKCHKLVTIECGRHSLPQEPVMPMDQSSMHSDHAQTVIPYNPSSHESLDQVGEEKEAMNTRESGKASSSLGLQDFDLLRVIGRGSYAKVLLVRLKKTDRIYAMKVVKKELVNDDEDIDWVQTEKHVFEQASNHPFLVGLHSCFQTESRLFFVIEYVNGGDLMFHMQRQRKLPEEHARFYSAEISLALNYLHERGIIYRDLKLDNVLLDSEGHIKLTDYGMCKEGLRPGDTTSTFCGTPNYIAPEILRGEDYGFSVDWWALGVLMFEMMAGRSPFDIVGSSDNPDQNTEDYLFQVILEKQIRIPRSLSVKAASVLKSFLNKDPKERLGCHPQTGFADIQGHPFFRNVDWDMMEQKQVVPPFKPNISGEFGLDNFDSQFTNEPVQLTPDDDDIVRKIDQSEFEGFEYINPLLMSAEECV

[11] = molecular target: panel of 255 wild-type kinases (Homo sapiens, UniProt Q9Y3S1); details: read-out: %-inhibition at 1 µmol/L, WNK2
[12] = molecular target: panel of 255 wild-type kinases (Homo sapiens, UniProt O60674); details: read-out: %-inhibition at 1 µmol/L, JAK2
[13] = molecular target: panel of 255 wild-type kinases (Homo sapiens, UniProt P11802); details: read-out: %-inhibition CDK4/CycD3
[14] = molecular target: panel of 255 wild-type kinases (Homo sapiens, UniProt Q9BYP7); details: read-out: %-inhibition at 1 µmol/L, WNK3
[15] = kinase CK1δ, 1 µmol/L single concentration
[16] = MST3, 1 µmol/L single concentration
[17] = kinase CK1γ2, 1 µmol/L single concentration
[18] = kinase PRKX, 1 µmol/L single concentration
[19] = kinase KIT, 1 µmol/L single concentration
[20] = CDK6/CycD3 kinase assay, 1 µmol/L single concentration
[21] = BTK kinase assay, 1 µmol/L single concentration
[22] = CaMK1δ kinase assay, 1 µmol/L single concentration
[23] = kinase TEC, 1 µmol/L single concentration
[24] = kinase PKCι, 1 µmol/L single concentration
[25] = kinase WNK2, 1 µmol/L single concentration
[26] = kinase JAK2, 1 µmol/L single concentration
[27] = CDK4/CycD3 kinase assay, 1 µmol/L single concentration
[28] = kinase WNK3, 1 µmol/L single concentration

Cc1nc(NC(=O)N2CCC[C@H]2C(N)=O)sc1-c1ccnc(C(C)(C)C(F)(F)F)c1 [alpelisib]
inhibition at 1 µM [1, 15]: 9%
inhibition at 1 µM [2, 16]: -4.63%
inhibition at 1 µM [3, 17]: -1.58%
inhibition at 1 µM [4, 18]: -4.49%
inhibition at 1 µM [5, 19]: 5%
inhibition at 1 µM [6, 20]: 2%
inhibition at 1 µM [7, 21]: -0.621%
inhibition at 1 µM [8, 22]: 2%
inhibition at 1 µM [9, 23]: -0.644%
inhibition at 1 µM [10, 24]: 21%
inhibition at 1 µM [11, 25]: -3.36%
inhibition at 1 µM [12, 26]: 1.85%
inhibition at 1 µM [13, 27]: -10%
inhibition at 1 µM [14, 28]: -3%

Cn1cc(-c2cc3c(N4CCN(c5ncc([C@@](C)(N)c6ccc(F)cc6)cn5)CC4)ncnn3c2)cn1 [avapritinib]
inhibition at 1 µM [1, 15]: 11%
inhibition at 1 µM [2, 16]: 12%
inhibition at 1 µM [3, 17]: 7%
inhibition at 1 µM [4, 18]: 37%
inhibition at 1 µM [5, 19]: 100%
inhibition at 1 µM [6, 20]: -0.371%
inhibition at 1 µM [7, 21]: 13%
inhibition at 1 µM [8, 22]: -4.32%
inhibition at 1 µM [9, 23]: 16%
inhibition at 1 µM [10, 24]: 0.376%
inhibition at 1 µM [11, 25]: 0.928%
inhibition at 1 µM [12, 26]: 52%
inhibition at 1 µM [13, 27]: 9%
inhibition at 1 µM [14, 28]: -0.0892%

Cn1cnc2c(F)c(Nc3ccc(Br)cc3F)c(C(=O)NOCCO)cc21 [binimetinib]
inhibition at 1 µM [1, 15]: -4%
inhibition at 1 µM [2, 16]: 1.89%
inhibition at 1 µM [3, 17]: -0.416%
inhibition at 1 µM [4, 18]: 2.57%
inhibition at 1 µM [5, 19]: -0.242%
inhibition at 1 µM [6, 20]: -0.0739%
inhibition at 1 µM [7, 21]: -3.75%
inhibition at 1 µM [8, 22]: -8%
inhibition at 1 µM [9, 23]: 0.674%
inhibition at 1 µM [10, 24]: 15%
inhibition at 1 µM [11, 25]: -2.48%
inhibition at 1 µM [12, 26]: -0.409%
inhibition at 1 µM [13, 27]: 3.25%
inhibition at 1 µM [14, 28]: -2.67%

CNC(=O)c1ccc(-c2cnc3ncc(Cc4ccc5ncccc5c4)n3n2)cc1F [capmatinib]
inhibition at 1 µM [1]: -1.78%
inhibition at 1 µM [2]: 0.296%
inhibition at 1 µM [3]: -10%
inhibition at 1 µM [4]: -5.65%
inhibition at 1 µM [5]: 4%
inhibition at 1 µM [6]: -1.65%
inhibition at 1 µM [7]: 8%
inhibition at 1 µM [8]: -10%
inhibition at 1 µM [9]: 4%
inhibition at 1 µM [10]: -10%
inhibition at 1 µM [11]: -2.3%
inhibition at 1 µM [12]: 1.58%
inhibition at 1 µM [13]: -3.55%
inhibition at 1 µM [14]: -1.77%

COc1cc2ncnc(Nc3ccc(F)c(Cl)c3)c2cc1NC(=O)/C=C/CN1CCCCC1 [dacomitinib]
inhibition at 1 µM [1, 15]: -6.63%
inhibition at 1 µM [2, 16]: 27%
inhibition at 1 µM [3, 17]: -1.63%
inhibition at 1 µM [4, 18]: 0.677%
inhibition at 1 µM [5, 19]: -10%
inhibition at 1 µM [6, 20]: -6%
inhibition at 1 µM [7, 21]: 43%
inhibition at 1 µM [8, 22]: 1.43%
inhibition at 1 µM [9, 23]: 20%
inhibition at 1 µM [10, 24]: 31%
inhibition at 1 µM [11, 25]: -4%
inhibition at 1 µM [12, 26]: 0.856%
inhibition at 1 µM [13, 27]: -0.81%
inhibition at 1 µM [14, 28]: -2.62%

C[C@H](Nc1ncnc2nc[nH]c12)c1cc2cccc(Cl)c2c(=O)n1-c1ccccc1 [duvelisib]
inhibition at 1 µM [1, 15]: -4.49%
inhibition at 1 µM [2, 16]: 0.418%
inhibition at 1 µM [3, 17]: 2.74%
inhibition at 1 µM [4, 18]: 0.385%
inhibition at 1 µM [5, 19]: -2.43%
inhibition at 1 µM [6, 20]: 1.75%
inhibition at 1 µM [7, 21]: 1.85%
inhibition at 1 µM [8, 22]: 6%
inhibition at 1 µM [9, 23]: 1.84%
inhibition at 1 µM [10, 24]: 18%
inhibition at 1 µM [11, 25]: -1.82%
inhibition at 1 µM [12, 26]: 3.29%
inhibition at 1 µM [13, 27]: -10%
inhibition at 1 µM [14, 28]: -0.718%

COC(=O)N[C@@H](C)CNc1nccc(-c2cn(C(C)C)nc2-c2cc(Cl)cc(NS(C)(=O)=O)c2F)n1 [encorafenib]
inhibition at 1 µM [1, 15]: 20%
inhibition at 1 µM [2, 16]: 7%
inhibition at 1 µM [3, 17]: 31%
inhibition at 1 µM [4, 18]: 1.82%
inhibition at 1 µM [5, 19]: -1.43%
inhibition at 1 µM [6, 20]: 6%
inhibition at 1 µM [7, 21]: -1.36%
inhibition at 1 µM [8, 22]: -7%
inhibition at 1 µM [9, 23]: -1.53%
inhibition at 1 µM [10, 24]: -1.18%
inhibition at 1 µM [11, 25]: -0.751%
inhibition at 1 µM [12, 26]: 2.62%
inhibition at 1 µM [13, 27]: 10%
inhibition at 1 µM [14, 28]: -1.55%

CCN1CCN(c2ccc(Nc3cc(N(C)C(=O)Nc4c(Cl)c(OC)cc(OC)c4Cl)ncn3)cc2)CC1 [infigratinib]
inhibition at 1 µM [1, 15]: -4.4%
inhibition at 1 µM [2, 16]: 7%
inhibition at 1 µM [3, 17]: -12%
inhibition at 1 µM [4, 18]: -3.53%
inhibition at 1 µM [6, 20]: 17%
inhibition at 1 µM [8, 22]: 2.23%
inhibition at 1 µM [9, 23]: 7%
inhibition at 1 µM [10, 24]: -10%
inhibition at 1 µM [11, 25]: 1%
inhibition at 1 µM [12, 26]: 2.11%
inhibition at 1 µM [13, 27]: 66%
inhibition at 1 µM [14, 28]: 1.62%

CCn1c(=O)c(-c2cc(NC(=O)Nc3ccccc3)c(F)cc2Br)cc2cnc(NC)cc21 [ripretinib]
inhibition at 1 µM [1, 15]: -8%
inhibition at 1 µM [2, 16]: -4%
inhibition at 1 µM [3, 17]: -2.31%
inhibition at 1 µM [4, 18]: 0.705%
inhibition at 1 µM [6, 20]: -7%
inhibition at 1 µM [7, 21]: 4.22%
inhibition at 1 µM [8, 22]: 2.32%
inhibition at 1 µM [9, 23]: 5.66%
inhibition at 1 µM [10, 24]: 21%
inhibition at 1 µM [11, 25]: -1.64%
inhibition at 1 µM [12, 26]: 63%
inhibition at 1 µM [13, 27]: -1.19%
inhibition at 1 µM [14, 28]: -1.09%

C=CC(=O)N1CCC([C@@H]2CCNc3c(C(N)=O)c(-c4ccc(Oc5ccccc5)cc4)nn32)CC1 [zanubrutinib]
inhibition at 1 µM [1, 15]: -4%
inhibition at 1 µM [2, 16]: 0.0873%
inhibition at 1 µM [3, 17]: -7%
inhibition at 1 µM [4, 18]: -1%
inhibition at 1 µM [5, 19]: -4.47%
inhibition at 1 µM [6, 20]: 3.49%
inhibition at 1 µM [8, 22]: -1.26%
inhibition at 1 µM [9]: 96%
inhibition at 1 µM [10, 24]: -8%
inhibition at 1 µM [11, 25]: 2%
inhibition at 1 µM [12, 26]: -0.375%
inhibition at 1 µM [13, 27]: -1.7%
inhibition at 1 µM [14, 28]: 5.7%
